Results published in publication PMC4965148 (PLoS ONE, 2016).
Where “and” joins values, the source holds several entries; their conditions need not be identical. Equal values may be shown once. Read-outs that look alike come from different tables or passages of the source.

Legend:
[1] = Plasma and brain concentrations after dosing; format: in vivo, rat; settings: rat, plasma; for concentration at 30 min: sc
Protocol: At specified time points after dosing, the forebrain (for occupancy), the remaining hindbrain (for brain drug exposure) and plasma were collected, frozen in chilled isopentane and stored at -80°C until assayed.
In brief, 50 μL of the plasma sample was extracted by protein precipitation with 150 μL acetonitrile containing an internal standard and 5 μL of supernatant injected into the LC-MS/MS system. Analytes were separated by reversed phase chromatography and detection of each analyte was achieved through selected reaction monitoring mode of mass spectrometry.

Estrogen receptor alpha = Estrogen receptor alpha (Homo sapiens, UniProt P03372); assay: Selectivity panel, binding
Histamine H1 = Histamine H1 (Homo sapiens, UniProt P35367); assay: Selectivity panel, binding
L-type calcium channel = assay: Selectivity panel, functional; format: cell-based; settings: Human
GABA-A α1β2γ2 = GABA-A α1β2γ2 (Homo sapiens, UniProt P14867+P18507+P47870); assay: Selectivity panel, functional; format: cell-based
[2] = target: Norepinephrine transporter (Homo sapiens, UniProt P23975); assay: Selectivity panel, binding
5-HT transporter = 5-HT transporter (Homo sapiens, UniProt P31645); assay: Selectivity panel, binding
PDE4 = assay: Selectivity panel, enzyme; format: biochemical; settings: Human
α7 nAChR = target: T1, α7 nAChR (Rattus norvegicus, UniProt Q05941); assay: Ex vivo α7 nAChR occupancy ([3H]-A-585539); format: in vivo; settings: for receptor occupancy at 10 mg/kg: rat
T1 construct: One forebrain hemisphere from each animal was thawed and homogenized in assay buffer; from tissue; host or cells: forebrain homogenate of dosed male Sprague Dawley rats

PDE3 = assay: Selectivity panel, enzyme; format: biochemical; settings: Human
[3] = tested on: S(+)ketamine treated rats; assay: Rat S(+)ketamine N40 gating
Androgen receptor = Androgen receptor (Rattus norvegicus, UniProt P15207); assay: Selectivity panel, binding
human 5-HT3A receptors = target: T2, human 5-HT3A receptors (Homo sapiens, UniProt P46098); assay: biochemical
T2 sequence (P46098 24-478): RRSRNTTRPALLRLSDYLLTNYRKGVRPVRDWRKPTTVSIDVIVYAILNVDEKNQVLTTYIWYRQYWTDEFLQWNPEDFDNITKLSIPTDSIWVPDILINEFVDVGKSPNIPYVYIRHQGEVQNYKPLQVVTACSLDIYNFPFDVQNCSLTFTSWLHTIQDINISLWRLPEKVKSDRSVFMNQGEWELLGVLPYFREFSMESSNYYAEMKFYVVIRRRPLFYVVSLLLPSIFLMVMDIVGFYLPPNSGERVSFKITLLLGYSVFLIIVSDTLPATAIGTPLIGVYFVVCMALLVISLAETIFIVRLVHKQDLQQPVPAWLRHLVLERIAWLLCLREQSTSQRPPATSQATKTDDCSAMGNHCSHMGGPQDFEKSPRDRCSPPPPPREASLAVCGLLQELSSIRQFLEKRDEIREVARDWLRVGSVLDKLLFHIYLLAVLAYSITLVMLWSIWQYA

T1 sequence (Q05941 23-502): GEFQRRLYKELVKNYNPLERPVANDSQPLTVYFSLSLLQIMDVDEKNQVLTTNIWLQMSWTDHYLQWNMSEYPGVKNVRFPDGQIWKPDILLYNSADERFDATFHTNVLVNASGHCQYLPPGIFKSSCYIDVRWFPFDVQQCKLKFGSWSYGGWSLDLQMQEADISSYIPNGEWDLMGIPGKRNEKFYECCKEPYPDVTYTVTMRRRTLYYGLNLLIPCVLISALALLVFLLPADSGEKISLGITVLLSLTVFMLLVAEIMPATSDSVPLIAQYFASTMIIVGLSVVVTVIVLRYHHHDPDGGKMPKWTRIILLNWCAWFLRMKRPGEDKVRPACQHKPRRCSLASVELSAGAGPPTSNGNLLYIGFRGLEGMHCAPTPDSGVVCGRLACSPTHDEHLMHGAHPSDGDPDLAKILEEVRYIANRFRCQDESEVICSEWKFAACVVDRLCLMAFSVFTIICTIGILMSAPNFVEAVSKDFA
Chain of GABA-A α1β2γ2 (P14867 28-456): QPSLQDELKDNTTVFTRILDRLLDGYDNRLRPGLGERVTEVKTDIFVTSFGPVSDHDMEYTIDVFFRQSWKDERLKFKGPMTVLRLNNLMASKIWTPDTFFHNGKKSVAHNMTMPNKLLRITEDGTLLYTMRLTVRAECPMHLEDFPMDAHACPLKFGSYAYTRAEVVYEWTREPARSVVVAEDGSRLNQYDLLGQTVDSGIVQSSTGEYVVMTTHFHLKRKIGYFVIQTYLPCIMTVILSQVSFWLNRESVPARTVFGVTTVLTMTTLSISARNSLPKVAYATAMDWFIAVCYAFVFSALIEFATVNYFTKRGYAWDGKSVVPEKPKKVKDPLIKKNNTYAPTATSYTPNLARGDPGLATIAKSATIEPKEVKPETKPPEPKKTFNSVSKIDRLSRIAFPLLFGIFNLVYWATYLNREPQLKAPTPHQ
Chain of GABA-A α1β2γ2 (P47870 25-512 limits assumed): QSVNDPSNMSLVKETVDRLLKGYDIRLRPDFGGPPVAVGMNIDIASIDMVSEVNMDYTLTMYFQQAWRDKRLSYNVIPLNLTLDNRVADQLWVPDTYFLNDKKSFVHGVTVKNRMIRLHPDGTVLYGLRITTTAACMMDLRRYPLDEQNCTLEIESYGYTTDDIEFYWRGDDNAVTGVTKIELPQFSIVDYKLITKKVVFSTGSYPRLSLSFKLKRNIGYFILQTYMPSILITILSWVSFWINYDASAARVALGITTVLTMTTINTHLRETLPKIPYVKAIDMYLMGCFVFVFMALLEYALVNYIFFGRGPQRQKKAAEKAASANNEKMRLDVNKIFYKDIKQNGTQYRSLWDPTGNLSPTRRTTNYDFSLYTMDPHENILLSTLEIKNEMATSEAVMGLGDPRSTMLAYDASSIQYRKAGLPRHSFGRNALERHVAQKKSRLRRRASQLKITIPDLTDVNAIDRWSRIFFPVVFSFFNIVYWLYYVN
Chain of GABA-A α1β2γ2 (P18507 40-475): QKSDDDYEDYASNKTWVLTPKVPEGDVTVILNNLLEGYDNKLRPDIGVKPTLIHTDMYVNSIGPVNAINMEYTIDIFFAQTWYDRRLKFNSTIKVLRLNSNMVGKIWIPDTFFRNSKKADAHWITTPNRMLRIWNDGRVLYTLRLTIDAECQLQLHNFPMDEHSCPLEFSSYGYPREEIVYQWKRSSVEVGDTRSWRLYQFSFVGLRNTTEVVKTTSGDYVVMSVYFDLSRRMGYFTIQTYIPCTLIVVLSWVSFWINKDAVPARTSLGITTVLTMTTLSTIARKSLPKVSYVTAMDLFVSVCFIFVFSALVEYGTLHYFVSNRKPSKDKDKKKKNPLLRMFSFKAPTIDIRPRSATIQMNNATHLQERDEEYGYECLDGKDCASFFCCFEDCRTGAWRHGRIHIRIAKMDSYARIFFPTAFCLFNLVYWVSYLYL
Chain of Estrogen receptor alpha (P03372 whole entry): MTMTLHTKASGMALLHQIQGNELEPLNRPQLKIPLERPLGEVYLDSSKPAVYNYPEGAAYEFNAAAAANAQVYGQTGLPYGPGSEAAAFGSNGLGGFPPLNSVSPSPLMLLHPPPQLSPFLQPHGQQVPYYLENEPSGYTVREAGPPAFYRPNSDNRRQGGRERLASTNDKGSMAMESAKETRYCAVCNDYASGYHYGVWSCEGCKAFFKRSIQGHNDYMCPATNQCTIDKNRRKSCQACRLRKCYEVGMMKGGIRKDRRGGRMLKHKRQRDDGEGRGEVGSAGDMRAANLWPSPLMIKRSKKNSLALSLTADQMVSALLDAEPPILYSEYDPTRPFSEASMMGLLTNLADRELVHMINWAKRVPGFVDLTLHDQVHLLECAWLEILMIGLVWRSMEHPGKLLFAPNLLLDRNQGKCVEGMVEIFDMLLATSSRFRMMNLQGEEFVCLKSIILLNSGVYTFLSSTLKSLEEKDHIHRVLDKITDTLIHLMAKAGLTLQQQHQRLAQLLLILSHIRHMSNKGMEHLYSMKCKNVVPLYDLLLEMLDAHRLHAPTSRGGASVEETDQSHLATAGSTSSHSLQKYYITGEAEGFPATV
Chain of Androgen receptor (P15207 whole entry S389L): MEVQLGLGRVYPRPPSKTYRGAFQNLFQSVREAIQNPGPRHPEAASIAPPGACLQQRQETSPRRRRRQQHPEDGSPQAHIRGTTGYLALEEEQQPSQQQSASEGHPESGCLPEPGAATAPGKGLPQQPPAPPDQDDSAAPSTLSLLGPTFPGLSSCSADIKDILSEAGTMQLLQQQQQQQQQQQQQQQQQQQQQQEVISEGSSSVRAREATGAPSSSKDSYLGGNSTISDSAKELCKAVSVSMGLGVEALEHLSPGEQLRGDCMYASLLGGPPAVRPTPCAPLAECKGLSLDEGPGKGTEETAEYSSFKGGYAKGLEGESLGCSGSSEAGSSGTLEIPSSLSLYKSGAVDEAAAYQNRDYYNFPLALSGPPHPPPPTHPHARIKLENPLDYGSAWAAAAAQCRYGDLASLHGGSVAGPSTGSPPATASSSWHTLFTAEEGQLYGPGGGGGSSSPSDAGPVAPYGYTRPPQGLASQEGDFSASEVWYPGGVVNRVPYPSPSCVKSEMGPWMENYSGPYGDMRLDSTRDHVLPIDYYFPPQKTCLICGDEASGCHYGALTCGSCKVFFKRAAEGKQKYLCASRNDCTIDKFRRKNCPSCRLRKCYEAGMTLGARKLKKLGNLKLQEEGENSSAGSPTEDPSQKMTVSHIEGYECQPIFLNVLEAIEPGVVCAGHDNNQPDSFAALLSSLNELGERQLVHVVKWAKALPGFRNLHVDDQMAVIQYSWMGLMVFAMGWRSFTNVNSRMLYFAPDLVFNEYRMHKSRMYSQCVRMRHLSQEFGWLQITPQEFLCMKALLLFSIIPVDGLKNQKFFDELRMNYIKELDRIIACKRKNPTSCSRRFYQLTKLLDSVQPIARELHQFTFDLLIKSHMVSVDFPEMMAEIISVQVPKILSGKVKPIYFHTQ
Chain of Norepinephrine transporter (P23975 whole entry): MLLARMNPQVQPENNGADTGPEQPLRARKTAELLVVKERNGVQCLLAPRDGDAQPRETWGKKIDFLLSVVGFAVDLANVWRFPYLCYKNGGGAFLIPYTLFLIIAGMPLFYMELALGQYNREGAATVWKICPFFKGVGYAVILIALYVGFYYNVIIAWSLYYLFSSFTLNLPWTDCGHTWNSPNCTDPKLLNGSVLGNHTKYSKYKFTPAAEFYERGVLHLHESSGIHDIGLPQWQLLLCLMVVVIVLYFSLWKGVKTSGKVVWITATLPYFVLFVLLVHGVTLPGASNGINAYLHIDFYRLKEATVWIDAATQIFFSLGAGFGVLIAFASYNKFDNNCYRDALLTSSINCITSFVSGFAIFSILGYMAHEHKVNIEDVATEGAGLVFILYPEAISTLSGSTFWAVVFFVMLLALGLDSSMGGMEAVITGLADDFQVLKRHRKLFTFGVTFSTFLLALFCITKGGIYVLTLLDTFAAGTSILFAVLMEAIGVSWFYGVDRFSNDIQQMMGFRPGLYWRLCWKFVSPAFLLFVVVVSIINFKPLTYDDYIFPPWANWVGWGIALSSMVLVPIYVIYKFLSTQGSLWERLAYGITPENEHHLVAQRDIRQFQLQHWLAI
Chain of Histamine H1 (P35367 whole entry): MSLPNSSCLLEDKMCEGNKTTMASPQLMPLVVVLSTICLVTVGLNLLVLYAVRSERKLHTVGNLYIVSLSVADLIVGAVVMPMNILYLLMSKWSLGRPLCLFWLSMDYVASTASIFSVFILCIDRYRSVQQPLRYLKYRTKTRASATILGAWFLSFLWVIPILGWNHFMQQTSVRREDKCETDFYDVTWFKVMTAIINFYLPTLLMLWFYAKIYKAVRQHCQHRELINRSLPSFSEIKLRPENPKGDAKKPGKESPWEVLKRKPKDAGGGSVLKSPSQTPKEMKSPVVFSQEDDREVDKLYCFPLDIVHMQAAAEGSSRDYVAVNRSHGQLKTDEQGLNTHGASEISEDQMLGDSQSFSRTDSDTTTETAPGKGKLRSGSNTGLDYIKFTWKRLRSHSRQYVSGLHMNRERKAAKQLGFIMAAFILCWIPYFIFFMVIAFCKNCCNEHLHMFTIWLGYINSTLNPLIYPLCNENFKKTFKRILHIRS

c1cn(-c2cc(NC3=NC[C@@]4(CN5CCC4CC5)O3)ncn2)cn1 [BMS-933043, (2R)-N-(6-(1H-imidazol-1-yl)-4-pyrimidinyl)-4'H-spiro[4-azabicyclo[2.2.2]octane-2,5'-[1,3]oxazol]-2'-amine] showed a concentration at 150 min ([1]; oral, 0.3 mg/kg, Rat MK-801 Set Shift (0.3-3 mg/kg study), 0.30 mg/kg po, read-out: Plasma Mean ± SD) of 5.7 ± 0.9 nM, a concentration at 150 min ([1]; oral, 1 mg/kg, Rat MK-801 Set Shift (0.3-3 mg/kg study), 1 mg/kg po, read-out: Plasma Mean ± SD) of 50 ± 7.4 nM and a concentration at 150 min ([1]; oral, 3 mg/kg, Rat MK-801 Set Shift (0.3-3 mg/kg study), 3 mg/kg po, read-out: Plasma Mean ± SD) of 410 ± 97 nM. It also gave a concentration at 150 min ([1]; oral, 3 mg/kg, Rat MK-801 Set Shift (3-30 mg/kg study), 3 mg/kg po, read-out: Plasma Mean ± SD) of 452 ± 60 nM, a concentration at 150 min ([1]; oral, 10 mg/kg, Rat MK-801 Set Shift (3-30 mg/kg study), 10 mg/kg po, read-out: Plasma Mean ± SD) of 1860 nM and a concentration at 150 min ([1]; oral, 30 mg/kg, Rat MK-801 Set Shift (3-30 mg/kg study), 30 mg/kg po, read-out: Plasma Mean ± SD) of 7260 nM. It also gave a concentration at 150 min ([1]; po, 1 mg/kg, Rat Neonatal PCP ID/ED, 1 mg/kg po, read-out: Plasma Mean ± SD) of 21 ± 9 nM, a concentration at 150 min ([1]; po, 3 mg/kg, Rat Neonatal PCP ID/ED, 3 mg/kg po, read-out: Plasma Mean ± SD) of 225 ± 50 nM and a concentration at 30 min ([1]; 0.01 mg/kg, Rat MMN, 0.01 mg/kg sc, 30 min, read-out: Plasma Mean ± SD) of 2.4 ± 0.1 nM. It also gave a concentration at 30 min ([1]; 0.03 mg/kg, Rat MMN, 0.03 mg/kg sc, 30 min, read-out: Plasma Mean ± SD) of 23 ± 29 nM, a concentration at 30 min ([1]; 0.1 mg/kg, Rat MMN, 0.10 mg/kg sc, 30 min, read-out: Plasma Mean ± SD) of 24 ± 0.6 nM and a concentration at 30 min ([1]; 0.3 mg/kg, Rat MMN, 0.30 mg/kg sc, 30 min, read-out: Plasma Mean ± SD) of 75 ± 6 nM. It also gave a concentration at 30 min ([1]; 0.3 mg/kg, Rat N40 Gating, 0.30 mg/kg sc, 30 min, read-out: Plasma Mean ± SD) of 81 ± 8 nM, a concentration at 30 min ([1]; 0.56 mg/kg, Rat N40 Gating, 0.56 mg/kg sc, 30 min, read-out: Plasma Mean ± SD) of 146 ± 12 nM and a concentration at 30 min ([1]; 1 mg/kg, Rat MMN, 1 mg/kg sc, 30 min, read-out: Plasma Mean ± SD) of 398 ± 139 nM. The concentration at 30 min ([1]; 1 mg/kg, Rat N40 Gating, 1 mg/kg sc, 30 min, read-out: Plasma Mean ± SD) was 295 ± 27 nM, the concentration at 30 min ([1]; 3 mg/kg, Rat MMN, 3 mg/kg sc, 30 min, read-out: Plasma Mean ± SD) was 1970 nM and the concentration at 30 min ([1]; 3 mg/kg, Rat N40 Gating, 3 mg/kg sc, 30 min, read-out: Plasma Mean ± SD) was 1360 nM. For the same compound, the concentration at 30 min ([1]; subcutaneous, 10 mg/kg, N40 gating, read-out: average plasma concentration at dose with loss of efficacy) was 3310 nM, the IC50 (Estrogen receptor alpha) was > 150 µM and the IC50 (Histamine H1) was > 30 µM. For the same compound, the IC50 (L-type calcium channel) was > 25 µM, the IC50 (GABA-A α1β2γ2) was > 30 µM and the IC50 [2] was > 30 µM. For the same compound, the IC50 (5-HT transporter) was > 30 µM, the IC50 (PDE4) was > 30 µM and the “% ex vivo α7 nAChR occupancy” value (α7 nAChR; 3 mg/kg po, 90 min, individual rats) was 65% and 63% and 62% and 28%. The “% ex vivo α7 nAChR occupancy” value (α7 nAChR; 10 mg/kg po, 90 min) was 83% and 78% and 77% and > 75%, the “% ex vivo α7 nAChR occupancy” value (α7 nAChR; 30 mg/kg po, 90 min, individual rats) was 82% and 90% and 67% and 69% and the receptor occupancy at 10 mg/kg (α7 nAChR; po, 10 mg/kg po, 90 min, read-out: % ex vivo α7 nAChR occupancy) was 80%. For the same compound, the receptor occupancy at 10 mg/kg (α7 nAChR; rats, 10 mg/kg sc to 30 mg/kg po, read-out: ex vivo α7 nAChR occupancy at doses associated with a loss of efficacy) was ≥ 80%, the EC50 (α7 nAChR; rats, read-out: total plasma concentration achieving 50% ex vivo α7 nAChR occupancy) was 0.81 µM and the IC50 (PDE3) was > 30 µM. For the same compound, the “deficit in N40 gating following S(+)ketamine” value ([3]; 0.3 and 10 mg/kg sc) was “neither the lowest dose (0.3 mg/kg; data not shown) nor the highest dose (10 mg/kg) tested were significantly different”, the “deficit in N40 gating following S(+)ketamine” value ([3]; 0.56, 1 and 3 mg/kg sc) was “significant reduction” and the “Active dose range, S(+)Ketamine N40 gating” value ([3]; sc) was 0.56–3.0 (sc) mg/kg. For the same compound, the IC50 (Androgen receptor) was > 150 µM, the Ki (human 5-HT3A receptors; HEK293/human 5-HT3A Ki (individual), individual determinations) was 2.31 µM and 2.59 µM and the Ki (human 5-HT3A receptors; human 5-HT3A mean Ki ± SD) was 2.45 µM.
